Holding throughout (assay): Protein kinase assay
Experiment [1] concerns the target DYRK1B (Homo sapiens, UniProt Q9Y463). In kind it is biochemical. To be noted: 15 μmol/L ATP.
Experiment [2] has as its target T1, CDK2/cyclin A (Homo sapiens, UniProt P24941).
T1 construct: made in house
It counts as biochemical. To be noted: 15 μmol/L ATP; read-out: IC50 CDK2/cyclin A.

Experiment [3] addresses LdDYRK4 (Leishmania donovani, UniProt A0A3Q8IC55). It counts as biochemical. The conditions noted are these: 15 μmol/L ATP; read-out: IC50 LdDYRK4.
In experiment [4] the target is GlCLK (Giardia intestinalis, UniProt A8BBY0). It counts as biochemical. The conditions noted are these: 15 μmol/L ATP; read-out: IC50 GlCLK.
Experiment [5] addresses LmCLK (Leishmania major, UniProt Q4QHY4). In kind it is biochemical. To be noted: 15 μmol/L ATP; read-out: IC50 LmCLK.
The target in experiment [6] is TbCLK1 (Trypanosoma brucei brucei, UniProt Q382U0). In kind it is biochemical. The conditions noted are these: 15 μmol/L ATP; read-out: IC50 TbCLK1.
For experiment [7], the target named is CpLAMMER (Cryptosporidium parvum, UniProt A3FQG5). It counts as biochemical. To be noted: 15 μmol/L ATP; read-out: IC50 CpLAMMER.
For experiment [8], the target named is TcCLK1 (Trypanosoma cruzi, UniProt Q4E3Z1). In kind it is biochemical. To be noted: 15 μmol/L ATP; read-out: IC50 TcCLK1.
The target in experiment [9] is T2, PfGSK-3 (Plasmodium falciparum, UniProt O77344).
T2 sequence (O77344 1-440): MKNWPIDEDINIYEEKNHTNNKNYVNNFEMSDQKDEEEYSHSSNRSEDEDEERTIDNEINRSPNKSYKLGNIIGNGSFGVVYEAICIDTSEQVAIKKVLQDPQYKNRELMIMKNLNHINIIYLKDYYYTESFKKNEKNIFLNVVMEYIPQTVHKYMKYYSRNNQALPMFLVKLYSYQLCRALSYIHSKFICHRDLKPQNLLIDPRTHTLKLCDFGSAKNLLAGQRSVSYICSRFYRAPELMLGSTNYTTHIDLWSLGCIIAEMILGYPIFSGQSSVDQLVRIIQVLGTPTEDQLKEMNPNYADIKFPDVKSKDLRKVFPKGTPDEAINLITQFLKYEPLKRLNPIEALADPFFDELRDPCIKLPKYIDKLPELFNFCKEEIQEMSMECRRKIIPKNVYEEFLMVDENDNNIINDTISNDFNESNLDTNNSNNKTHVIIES
In kind it is biochemical. The conditions noted are these: 15 μmol/L ATP; read-out: IC50 PfGSK-3.

The target in experiment [10] is LmDYRK2 (Leishmania major, UniProt Q4Q405). It counts as biochemical. To be noted: 15 μmol/L ATP; read-out: IC50 LmDYRK2.
For experiment [11], the target named is LdDYRK1B (Leishmania donovani, UniProt E9BC59). In kind it is biochemical. To be noted: 15 μmol/L ATP.
In experiment [12] the target is LdDYRK3 (Leishmania donovani, UniProt E9BS59). In kind it is biochemical. To be noted: 15 μmol/L ATP; read-out: IC50 LdDYRK3.
The target in experiment [13] is PfCLK1 (Plasmodium falciparum, UniProt Q8IL19). In kind it is biochemical. To be noted: 15 μmol/L ATP; read-out: IC50 PfCLK1.
Experiment [14] addresses CLK4 (Mus musculus, UniProt O35493). To be noted: IC50 CLK4, 15 μmol/L ATP.
The target in experiment [15] is CK1δ/ε. It counts as biochemical, porcine. The conditions noted are these: 15 μmol/L ATP. Here is the method: (§1) CK1δ/ε (porcine brain, native) and LmCK1 (leishmania major, recombinant, expressed in E. coli as HIS fusion proteins) was assayed as described for CDK1 but in buffer C and using 25 μM CKS peptide ([…]pSAYSITA), a CK1-specific substrate.
In experiment [16] the target is LmCK1 (Leishmania major, UniProt Q9NHE1). In kind it is biochemical. To be noted: 15 μmol/L ATP; read-out: IC50 LmCK1. The protocol: as §1
The target in experiment [17] is CDK1/cyclin B. It counts as biochemical, starfish. The conditions noted are these: 15 μmol/L ATP.
The target in experiment [18] is CLK1 (Mus musculus, UniProt P22518). The conditions noted are these: IC50 CLK1, 15 μmol/L ATP.
Experiment [19] deals with CLK3 (Mus musculus, UniProt O35492). The conditions noted are these: IC50 CLK3, 15 μmol/L ATP.
Experiment [20] addresses CLK2 (Mus musculus, UniProt O35491). To be noted: IC50 CLK2, 15 μmol/L ATP.
The target in experiment [21] is DYRK1A (Homo sapiens, UniProt Q13627). It counts as biochemical. The conditions noted are these: 15 μmol/L ATP.
The target of experiment [22] is TgCLK (Toxoplasma gondii, UniProt V4ZJD6). It counts as biochemical. To be noted: 15 μmol/L ATP; read-out: IC50 TgCLK.
The target in experiment [23] is CDK9/cyclin T (Homo sapiens, UniProt P50750). To be noted: IC50 CDK9/cyclin T, 15 μmol/L ATP.

Structures are written as SMILES. Bounds are passed on as bounds.

CLK2, sequence (O35491 whole entry): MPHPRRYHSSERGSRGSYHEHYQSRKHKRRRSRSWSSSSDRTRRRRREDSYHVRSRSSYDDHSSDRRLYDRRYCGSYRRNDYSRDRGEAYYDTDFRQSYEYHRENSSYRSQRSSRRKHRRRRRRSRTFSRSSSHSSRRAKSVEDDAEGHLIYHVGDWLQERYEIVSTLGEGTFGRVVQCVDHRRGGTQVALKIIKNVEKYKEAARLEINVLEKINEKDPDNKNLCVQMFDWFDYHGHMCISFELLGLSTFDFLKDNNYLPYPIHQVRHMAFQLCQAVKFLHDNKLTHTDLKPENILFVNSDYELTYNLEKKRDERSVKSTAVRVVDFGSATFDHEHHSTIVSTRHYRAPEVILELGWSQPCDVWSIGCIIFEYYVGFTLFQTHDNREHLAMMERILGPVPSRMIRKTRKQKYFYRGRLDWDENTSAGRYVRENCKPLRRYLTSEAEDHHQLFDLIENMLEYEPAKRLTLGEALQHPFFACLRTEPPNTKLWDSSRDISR
LmCLK, sequence (Q4QHY4 entry or part of it): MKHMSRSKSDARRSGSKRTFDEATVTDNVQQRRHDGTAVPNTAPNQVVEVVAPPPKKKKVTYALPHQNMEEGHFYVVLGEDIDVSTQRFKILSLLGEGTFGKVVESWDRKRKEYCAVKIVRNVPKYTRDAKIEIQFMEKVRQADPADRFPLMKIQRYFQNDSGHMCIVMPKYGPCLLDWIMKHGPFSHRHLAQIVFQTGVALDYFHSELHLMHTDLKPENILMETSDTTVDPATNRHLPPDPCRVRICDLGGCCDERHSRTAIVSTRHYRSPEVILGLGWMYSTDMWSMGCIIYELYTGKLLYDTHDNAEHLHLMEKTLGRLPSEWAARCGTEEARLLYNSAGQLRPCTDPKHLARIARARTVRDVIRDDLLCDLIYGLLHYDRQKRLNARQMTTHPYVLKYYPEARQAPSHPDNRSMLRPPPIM
TbCLK1, sequence (Q382U0 entry or part of it): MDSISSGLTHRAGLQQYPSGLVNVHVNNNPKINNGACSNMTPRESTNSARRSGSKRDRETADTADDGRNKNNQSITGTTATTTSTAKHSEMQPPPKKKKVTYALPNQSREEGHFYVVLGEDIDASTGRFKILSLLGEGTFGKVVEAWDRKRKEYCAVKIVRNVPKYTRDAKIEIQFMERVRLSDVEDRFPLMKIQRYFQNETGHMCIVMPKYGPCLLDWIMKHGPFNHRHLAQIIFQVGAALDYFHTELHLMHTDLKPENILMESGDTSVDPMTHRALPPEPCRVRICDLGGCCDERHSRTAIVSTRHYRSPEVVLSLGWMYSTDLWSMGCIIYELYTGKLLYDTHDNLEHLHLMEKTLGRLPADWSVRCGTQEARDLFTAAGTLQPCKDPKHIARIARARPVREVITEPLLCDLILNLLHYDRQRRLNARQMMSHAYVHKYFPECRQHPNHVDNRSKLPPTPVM
CLK1, sequence (P22518 whole entry): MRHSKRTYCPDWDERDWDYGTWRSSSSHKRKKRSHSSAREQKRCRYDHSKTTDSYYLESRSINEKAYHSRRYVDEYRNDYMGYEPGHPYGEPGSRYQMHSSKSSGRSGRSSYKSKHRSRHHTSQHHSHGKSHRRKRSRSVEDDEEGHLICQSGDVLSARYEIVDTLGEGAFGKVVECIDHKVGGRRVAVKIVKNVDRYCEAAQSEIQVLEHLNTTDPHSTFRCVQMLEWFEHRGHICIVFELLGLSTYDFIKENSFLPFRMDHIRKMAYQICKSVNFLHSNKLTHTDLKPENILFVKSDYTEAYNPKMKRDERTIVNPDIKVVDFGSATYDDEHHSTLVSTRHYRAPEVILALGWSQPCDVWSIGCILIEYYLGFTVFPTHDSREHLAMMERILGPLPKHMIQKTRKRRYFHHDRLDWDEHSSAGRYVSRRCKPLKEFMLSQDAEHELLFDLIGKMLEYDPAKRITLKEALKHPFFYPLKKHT
GlCLK, sequence (A8BBY0 entry or part of it): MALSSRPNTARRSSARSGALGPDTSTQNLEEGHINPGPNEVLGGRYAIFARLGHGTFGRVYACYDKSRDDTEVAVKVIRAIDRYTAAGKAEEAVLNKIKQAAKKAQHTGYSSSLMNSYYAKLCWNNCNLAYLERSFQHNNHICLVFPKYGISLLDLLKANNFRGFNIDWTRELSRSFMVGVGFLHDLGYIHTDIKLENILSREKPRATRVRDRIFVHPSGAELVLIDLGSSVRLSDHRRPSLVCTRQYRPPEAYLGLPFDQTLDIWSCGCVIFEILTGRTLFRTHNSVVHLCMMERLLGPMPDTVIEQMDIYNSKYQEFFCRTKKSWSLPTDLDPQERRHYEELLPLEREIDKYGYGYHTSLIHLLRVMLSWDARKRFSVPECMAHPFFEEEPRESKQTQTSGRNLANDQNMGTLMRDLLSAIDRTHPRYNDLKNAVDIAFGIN
LdDYRK4, sequence (A0A3Q8IC55 entry or part of it): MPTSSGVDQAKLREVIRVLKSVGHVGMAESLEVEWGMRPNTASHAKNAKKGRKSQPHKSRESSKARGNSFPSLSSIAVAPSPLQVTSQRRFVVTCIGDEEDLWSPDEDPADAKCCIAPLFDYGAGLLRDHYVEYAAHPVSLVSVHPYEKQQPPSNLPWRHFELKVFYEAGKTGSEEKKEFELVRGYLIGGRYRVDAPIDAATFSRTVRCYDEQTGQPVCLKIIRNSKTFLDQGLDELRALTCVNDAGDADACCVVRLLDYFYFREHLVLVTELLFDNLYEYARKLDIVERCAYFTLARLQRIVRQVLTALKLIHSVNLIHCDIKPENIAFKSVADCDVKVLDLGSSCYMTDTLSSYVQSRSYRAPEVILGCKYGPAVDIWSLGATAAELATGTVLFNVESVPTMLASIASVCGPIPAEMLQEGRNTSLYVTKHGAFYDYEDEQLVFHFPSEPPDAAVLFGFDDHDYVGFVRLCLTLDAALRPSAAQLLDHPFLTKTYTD
LmCK1, sequence (Q9NHE1 entry or part of it): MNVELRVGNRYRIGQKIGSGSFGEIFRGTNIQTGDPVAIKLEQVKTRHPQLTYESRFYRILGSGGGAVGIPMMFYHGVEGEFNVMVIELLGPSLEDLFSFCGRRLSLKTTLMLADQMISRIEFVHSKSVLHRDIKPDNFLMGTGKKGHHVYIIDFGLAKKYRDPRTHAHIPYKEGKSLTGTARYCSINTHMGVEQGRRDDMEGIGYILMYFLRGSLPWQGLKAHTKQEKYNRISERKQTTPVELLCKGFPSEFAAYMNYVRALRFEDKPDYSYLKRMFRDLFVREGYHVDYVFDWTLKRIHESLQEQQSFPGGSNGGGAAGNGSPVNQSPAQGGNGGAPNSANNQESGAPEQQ
DYRK1B, sequence (Q9Y463 whole entry): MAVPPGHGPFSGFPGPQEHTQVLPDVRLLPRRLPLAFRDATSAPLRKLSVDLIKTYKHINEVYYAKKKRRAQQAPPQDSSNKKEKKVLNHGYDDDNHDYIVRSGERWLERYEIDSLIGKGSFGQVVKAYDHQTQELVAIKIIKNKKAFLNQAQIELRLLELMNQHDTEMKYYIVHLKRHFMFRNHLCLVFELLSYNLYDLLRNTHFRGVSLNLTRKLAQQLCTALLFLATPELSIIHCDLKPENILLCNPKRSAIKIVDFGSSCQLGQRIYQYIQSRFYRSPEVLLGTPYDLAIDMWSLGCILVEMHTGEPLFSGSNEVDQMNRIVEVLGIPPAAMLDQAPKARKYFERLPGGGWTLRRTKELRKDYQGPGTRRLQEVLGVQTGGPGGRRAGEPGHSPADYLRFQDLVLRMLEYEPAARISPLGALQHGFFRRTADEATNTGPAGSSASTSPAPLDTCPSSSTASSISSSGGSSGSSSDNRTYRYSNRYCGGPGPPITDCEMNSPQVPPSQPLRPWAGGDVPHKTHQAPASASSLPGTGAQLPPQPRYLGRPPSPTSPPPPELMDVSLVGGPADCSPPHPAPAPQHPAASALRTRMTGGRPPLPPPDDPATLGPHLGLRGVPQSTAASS
TcCLK1, sequence (Q4E3Z1 entry or part of it): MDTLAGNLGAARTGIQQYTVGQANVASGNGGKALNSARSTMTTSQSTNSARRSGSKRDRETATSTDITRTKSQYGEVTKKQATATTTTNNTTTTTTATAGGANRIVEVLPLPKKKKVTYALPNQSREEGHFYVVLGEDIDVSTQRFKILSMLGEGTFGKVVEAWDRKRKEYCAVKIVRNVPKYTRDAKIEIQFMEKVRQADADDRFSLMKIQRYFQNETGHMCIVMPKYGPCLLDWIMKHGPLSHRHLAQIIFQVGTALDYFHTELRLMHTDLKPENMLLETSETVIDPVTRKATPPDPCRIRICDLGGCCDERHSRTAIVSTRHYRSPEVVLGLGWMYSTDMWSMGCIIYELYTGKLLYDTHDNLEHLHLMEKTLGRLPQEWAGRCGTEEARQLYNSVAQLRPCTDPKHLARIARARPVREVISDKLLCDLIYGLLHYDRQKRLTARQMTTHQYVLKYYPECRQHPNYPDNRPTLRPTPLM
CLK3, sequence (O35492 whole entry): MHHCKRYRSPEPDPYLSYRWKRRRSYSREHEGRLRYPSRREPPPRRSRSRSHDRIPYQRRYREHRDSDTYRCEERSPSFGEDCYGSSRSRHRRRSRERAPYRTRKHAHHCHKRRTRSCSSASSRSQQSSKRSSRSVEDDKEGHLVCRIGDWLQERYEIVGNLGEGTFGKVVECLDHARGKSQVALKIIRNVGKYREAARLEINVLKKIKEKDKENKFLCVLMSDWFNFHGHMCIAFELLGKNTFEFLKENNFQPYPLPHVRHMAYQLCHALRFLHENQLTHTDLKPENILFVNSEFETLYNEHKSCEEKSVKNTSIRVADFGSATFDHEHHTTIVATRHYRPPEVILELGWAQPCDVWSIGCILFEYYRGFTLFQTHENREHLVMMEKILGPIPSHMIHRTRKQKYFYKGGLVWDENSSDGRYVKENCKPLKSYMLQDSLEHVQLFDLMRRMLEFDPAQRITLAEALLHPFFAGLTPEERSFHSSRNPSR

`NC1=NC(=O)/C(=C2\CCNC(=O)c3[nH]c(Br)cc32)N1` [Hymenialdisine, reference compound]: the IC50 in [1] was 3.2 nM; in [2], 11 nM; in experiment [3], above 10000 nM; in experiment [4], 12 nM; in experiment [5], 400 nM; in experiment [6] it was 530 nM. In addition, the IC50 in experiment [7] came out at 16 nM; in experiment [8], 510 nM; in experiment [9], 4.1 nM; in experiment [10] it was 380 nM; in [11], 42 nM; in experiment [12], 21 nM. In addition, the IC50 in experiment [13] was 11 nM; in experiment [14], 2.9 nM; in experiment [15], 3.7 nM; in experiment [16], 2.5 nM; in experiment [17], 5 nM; in experiment [18], 3 nM. Moreover, the IC50 in [19] was found to be 5.3 nM; in experiment [20], 4.1 nM; in experiment [21] it was 3.3 nM; in [22], 41 nM; in experiment [23] it was 11 nM.
With `CN1C(=O)N=C(Nc2nc(Cc3ccc4c(c3)OCO4)cn2C)C1=O` [Clathridine], the IC50 in experiment [1], in experiment [2], in experiment [3], in experiment [4], in experiment [5] and in experiment [6] was above 10000 nM each time. Moreover, the IC50 in experiment [7], in experiment [8], in [9], in experiment [10], in experiment [11] and in [12] was above 10000 nM throughout. The IC50 in experiment [13] is above 10000 nM; in experiment [14], 3900 nM; in experiment [15], above 10000 nM; in experiment [16], above 10000 nM; in experiment [17], above 10000 nM; in experiment [18] it was 6900 nM. The IC50 was above 10000 nM in [19]; 6000 nM in [20]; 7800 nM in [21]; above 10000 nM in experiment [22]; above 10000 nM in experiment [23].
